Test results published in article PMC8161026, “Synthesis and Anticancer Activity Evaluation of 5-[2-Chloro-3-(4-nitrophenyl)-2-propenylidene]-4-thiazolidinones” (Molecules, 2021).

Key:
EKVX [1] = experiment: cells; settings: Homo sapiens, 48 h
Breast Cancer subpanel = experiment: cells
Experimental: (§1) At the first stage of biological activity study, the antitumor activity screening of the selected compounds 2b, 2c, 2f, 2h, and 2j was performed according to the NCI DTP (USA) standard protocol at the concentrations ranging from 10^−4 to 10^−8 M toward 60 tumor cell lines. The percentage of growth was evaluated spectrophotometrically versus controls not treated with test agents after 48 h exposure and using SRB protein assay to estimate cell viability or growth. Dose–response parameters were calculated for each cell line: GI50—molar concentration of the compound that inhibits 50% net cell growth; TGI—molar concentration of the compound leading to the total inhibition; and LC50—molar concentration of the compound leading to 50% net cell death. Furthermore, mean graph midpoints (MG_MID) were calculated for each of the parameters, giving an average activity parameter over all cell lines for the tested compound. For the MG_MID calculation, insensitive cell lines were included with the highest concentration tested.
(§2) The selectivity index (SI) obtained by dividing the full panel MG-MID (mM) of the tested compound by their individual subpanel MG-MID (mM) was considered as a measure of selectivity of anticancer activity (Table 3).
(§3) Primary anticancer assay was performed on a panel of approximately sixty human tumor cell lines derived from nine neoplastic diseases, in accordance with the protocol of the Drug Evaluation Branch, National Cancer Institute, Bethesda. Tested compounds were added to the culture at a single concentration (10^−5 M) and the cultures were incubated for 48 h. End point determinations were made with a protein binding dye, sulforhodamine B (SRB). […] The percentage growth was evaluated spectrophotometrically versus controls not treated with test agents.
(§4) Dose–response parameters (GI50, TGI, LC50) were calculated for each compound. […] The drug concentration resulting in total growth inhibition (TGI) was calculated from Ti = Tz. The LC50 (concentration of drug resulting in a 50% reduction in the measured protein at the end of the drug treatment as compared to that at the beginning) indicating a net loss of cells following treatment was calculated from [(Ti − Tz)/Tz] × 100 = −50 (2). Values were calculated for each of these parameters if the level of activity was reached; however, if the effect was not reached or was excessive, the value for that parameter was expressed as more or less than the maximum or minimum concentration tested.

Renal Cancer subpanel = experiment: cells
Experimental: as §1, §2, §3, §4

CNS Cancer subpanel = experiment: cells
Experimental: as §1, §2, §3, §4

[2] = system: Non-Small Cell Lung Cancer subpanel; experiment: cells
Experimental: as §1, §2, §3, §4

Colon Cancer subpanel = experiment: cells
Experimental: as §1, §2, §3, §4

Ovarian Cancer subpanel = experiment: cells
Experimental: as §1, §2, §3, §4

Melanoma subpanel = experiment: cells
Experimental: as §1, §2, §3, §4

Prostate Cancer subpanel = experiment: cells
Experimental: as §1, §2, §3, §4

Leukemia subpanel = experiment: cells
Experimental: as §1, §2, §3, §4

IGROV1 = experiment: NCI DTP 60 cell line screen, SRB
K-562 [3] = settings: K-562 (Leukemia), 48 h, SRB
OVCAR-8 = experiment: NCI DTP 60 cell line screen, SRB
SR = experiment: cells; settings: Homo sapiens, 48 h
RPMI-8226 = RPMI-8226 (Leukemia), 48 h, SRB
PC-3 = experiment: cells; settings: Homo sapiens, PC-3, 48 h
K-562 [4] = experiment: cells; settings: Homo sapiens, K562, 48 h
SK-MEL-2 = SK-MEL-2 (Melanoma), 48 h, SRB
MOLT-4 = experiment: cells; settings: Homo sapiens, MOLT-4, 48 h
NCI-H226 = experiment: NCI DTP 60 cell line screen, SRB
EKVX [5] = settings: EKVX (Non-Small Cell Lung Cancer), 48 h, SRB
[6] = Homo sapiens, read-out: MG_MID, GI50
[7] = Homo sapiens, read-out: MG_MID, LC50
[8] = full panel MG_MID / Breast Cancer subpanel MG_MID
[9] = full panel MG_MID / Renal Cancer subpanel MG_MID
[10] = full panel MG_MID / CNS Cancer subpanel MG_MID
[11] = full panel MG_MID / Non-Small Cell Lung Cancer subpanel MG_MID
[12] = full panel MG_MID / Colon Cancer subpanel MG_MID
[13] = full panel MG_MID / Ovarian Cancer subpanel MG_MID
[14] = full panel MG_MID / Melanoma subpanel MG_MID
[15] = full panel MG_MID / Prostate Cancer subpanel MG_MID
[16] = full panel MG_MID / Leukemia subpanel MG_MID

With `O=C1NC(=S)S/C1=C\C(Cl)=C\c1ccc([N+](=O)[O-])cc1` [Compound 2b, 5-[(Z,2Z)-2-Chloro-3-(4-nitrophenyl)-2-propenylidene]-2-thioxo-4-thiazolidinone] the GI50 (EKVX [1]) was 2760 nM, the CC50 (EKVX [1]; read-out: LC50) was > 50 µM and the “MG_MID, TGI” value (Breast Cancer subpanel; Breast Cancer panel mean) was 28.4 µM. For the same compound, the GI50 (Breast Cancer subpanel; [6]) was 4.38 µM, the CC50 (Breast Cancer subpanel; [7]) was 46.7 µM and the “SI (selectivity index), GI50” value (Breast Cancer subpanel; [8]) was 1.09. The “SI (selectivity index), LC50” value (Breast Cancer subpanel; [8]) was 0.93, the “SI (selectivity index), TGI” value (Breast Cancer subpanel; [8]) was 0.71 and the GI50 (Renal Cancer subpanel; [6]) was 6.23 µM. The CC50 (Renal Cancer subpanel; [7]) was 42.9 µM, the “MG_MID, TGI” value (Renal Cancer subpanel; Renal Cancer panel mean) was 18.7 µM and the “SI (selectivity index), GI50” value (Renal Cancer subpanel; [9]) was 0.77. The “SI (selectivity index), LC50” value (Renal Cancer subpanel; [9]) was 1.01, the “SI (selectivity index), TGI” value (Renal Cancer subpanel; [9]) was 1.09 and the “MG_MID, TGI” value (CNS Cancer subpanel; CNS Cancer panel mean) was 22.4 µM. The GI50 (CNS Cancer subpanel; [6]) was 6.98 µM, the CC50 (CNS Cancer subpanel; [7]) was 45.4 µM and the “SI (selectivity index), GI50” value (CNS Cancer subpanel; [10]) was 0.69. The “SI (selectivity index), LC50” value (CNS Cancer subpanel; [10]) was 0.96, the “SI (selectivity index), TGI” value (CNS Cancer subpanel; [10]) was 0.91 and the GI50 [2, 6] was 3.79 µM. The CC50 [2, 7] was 48.6 µM, the “MG_MID, TGI” value ([2]; Non-Small Cell Lung Cancer panel mean) was 29.7 µM and the “SI (selectivity index), GI50” value [2, 11] was 1.26. For the same compound, the “SI (selectivity index), LC50” value [2, 11] was 0.90, the “SI (selectivity index), TGI” value [2, 11] was 0.68 and the “MG_MID, TGI” value (Colon Cancer subpanel; Colon Cancer panel mean) was 11.5 µM. The GI50 (Colon Cancer subpanel; [6]) was 3.27 µM, the CC50 (Colon Cancer subpanel; [7]) was 35.4 µM and the “SI (selectivity index), GI50” value (Colon Cancer subpanel; [12]) was 1.46. The “SI (selectivity index), LC50” value (Colon Cancer subpanel; [12]) was 1.23, the “SI (selectivity index), TGI” value (Colon Cancer subpanel; [12]) was 1.77 and the GI50 (Ovarian Cancer subpanel; [6]) was 6.68 µM. The CC50 (Ovarian Cancer subpanel; [7]) was 42.8 µM, the “MG_MID, TGI” value (Ovarian Cancer subpanel; Ovarian Cancer panel mean) was 21.0 µM and the “SI (selectivity index), GI50” value (Ovarian Cancer subpanel; [13]) was 0.72. For the same compound, the “SI (selectivity index), LC50” value (Ovarian Cancer subpanel; [13]) was 1.02, the “SI (selectivity index), TGI” value (Ovarian Cancer subpanel; [13]) was 0.97 and the GI50 (Melanoma subpanel; [6]) was 5.57 µM. For the same compound, the CC50 (Melanoma subpanel; [7]) was 36.8 µM, the “MG_MID, TGI” value (Melanoma subpanel; Melanoma panel mean) was 16.1 µM and the “SI (selectivity index), GI50” value (Melanoma subpanel; [14]) was 0.86. The “SI (selectivity index), LC50” value (Melanoma subpanel; [14]) was 1.18, the “SI (selectivity index), TGI” value (Melanoma subpanel; [14]) was 1.26 and the GI50 (Prostate Cancer subpanel; [6]) was 5.89 µM. For the same compound, the CC50 (Prostate Cancer subpanel; [7]) was 39.2 µM, the “MG_MID, TGI” value (Prostate Cancer subpanel; Prostate Cancer panel mean) was 32.1 µM and the “SI (selectivity index), GI50” value (Prostate Cancer subpanel; [15]) was 0.81. For the same compound, the “SI (selectivity index), LC50” value (Prostate Cancer subpanel; [15]) was 1.11, the “SI (selectivity index), TGI” value (Prostate Cancer subpanel; [15]) was 0.63 and the GI50 (Leukemia subpanel; [6]) was 1510 nM. For the same compound, the CC50 (Leukemia subpanel; [7]) was > 50 µM, the “MG_MID, TGI” value (Leukemia subpanel; Leukemia panel mean) was 20.2 µM and the “SI (selectivity index), GI50” value (Leukemia subpanel; [16]) was 3.17. The “SI (selectivity index), LC50” value (Leukemia subpanel; [16]) was <0.87, the “SI (selectivity index), TGI” value (Leukemia subpanel; [16]) was 1.00 and the GI50 (IGROV1; Homo sapiens, IGROV-1, 48 h) was 7.28 µM. For the same compound, the CC50 (IGROV1; Homo sapiens, IGROV-1, 48 h, read-out: LC50) was > 50 µM, the TGI (IGROV1; IGROV1 (Ovarian Cancer), 48 h, SRB) was 21.1 µM and the TGI (K-562 [3]) was 42.5 µM. For the same compound, the GI50 (OVCAR-8; Homo sapiens, OVCAR-8, 48 h) was 5.08 µM, the CC50 (OVCAR-8; Homo sapiens, OVCAR-8, 48 h, read-out: LC50) was 47.9 µM and the TGI (OVCAR-8; OVCAR-8 (Ovarian Cancer), 48 h, SRB) was 15.6 µM. For the same compound, the GI50 (SR) was 1180 nM, the CC50 (SR; read-out: LC50) was > 50 µM and the TGI (RPMI-8226) was 20.6 µM. The GI50 (PC-3) was 4.68 µM, the CC50 (PC-3; read-out: LC50) was > 50 µM and the GI50 (K-562 [4]) was 1440 nM. For the same compound, the CC50 (K-562 [4]; read-out: LC50) was > 50 µM, the TGI (SK-MEL-2) was 26.9 µM and the GI50 (MOLT-4) was 1740 nM. The CC50 (MOLT-4; read-out: LC50) was > 50 µM, the GI50 (NCI-H226; Homo sapiens, NCI-H226, 48 h) was 6.28 µM and the CC50 (NCI-H226; Homo sapiens, NCI-H226, 48 h, read-out: LC50) was > 50 µM. For the same compound, the TGI (NCI-H226; NCI-H226 (Non-Small Cell Lung Cancer), 48 h, SRB) was 20.0 µM and the TGI (EKVX [5]) was > 50 µM.
